Experimental data from PubChem BioAssay AID328 (DTP/NCI, 2004).
Values joined by “and” are separate entries in the source; they are usually repeats but may differ in a detail not shown here. Equal entries are not always repeated. Toxic doses and inconclusive results are not listed. How the source made its calls: active means survival T/C of 150% or more; inactive means T/C below 125% in these data.

Tested on: BDF1 mice, P388 leukemia ip, median survival T/C
Assay: NCI In Vivo Anticancer Drug Screen. Data for tumor model P388 Leukemia (intraperitoneal) in B6D2F1 (BDF1) mice
Settings: endpoint: median survival time, higher = longer survival
Procedure, shortened: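 Reported as T/C, where T is the survival measurement in dosed animals and C the same measurement in vehicle controls.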

[1] = dose: 50.0 mg/kg/injection, schedule: Q01DX009 (ip), vehicle: Klucel (hydroxypropylcellulose) (HPC)
[2] = dose: 50.0 mg/kg/injection, schedule: Q01DX009 (ip), vehicle: saline with Tween-80
[3] = dose: 100.0 mg/kg/injection, schedule: Q01DX009 (ip), vehicle: saline with Tween-80
[4] = dose: 200.0 mg/kg/injection, schedule: Q01DX009 (ip), vehicle: saline with Tween-80
[5] = dose: 100.0 mg/kg/injection, schedule: Q04DX003 (ip), vehicle: saline with Tween-80
[6] = dose: 200.0 mg/kg/injection, schedule: Q04DX003 (ip), vehicle: saline with Tween-80
[7] = dose: 400.0 mg/kg/injection, schedule: Q04DX003 (ip), vehicle: saline with Tween-80
[8] = dose: 400.0 mg/kg/injection, schedule: Q01DX009 (ip), vehicle: saline with Tween-80
[9] = dose: 25.0 mg/kg/injection, schedule: Q01DX009 (ip), vehicle: saline
[10] = dose: 50.0 mg/kg/injection, schedule: Q01DX009 (ip), vehicle: saline
[11] = dose: 100.0 mg/kg/injection, schedule: Q01DX009 (ip), vehicle: saline

Measured: T/C

CC1OCC(Br)([N+](=O)[O-])CO1 (configuration not stated)
inactive: dose: 12.5 mg/kg/injection, schedule: Q04DX003 (ip), vehicle: saline 99 % of control | dose: 25.0 mg/kg/injection, schedule: Q04DX003 (ip), vehicle: saline 107 % of control

CC(O)C#CC(C)O (configuration not stated)
inactive: dose: 12.5 mg/kg/injection, schedule: Q01DX009 (ip), vehicle: Klucel (hydroxypropylcellulose) (HPC) 91 % of control | dose: 12.5 mg/kg/injection, schedule: Q04DX003 (ip), vehicle: Klucel (hydroxypropylcellulose) (HPC) 118 % of control | dose: 25.0 mg/kg/injection, schedule: Q01DX009 (ip), vehicle: Klucel (hydroxypropylcellulose) (HPC) 91 % of control | dose: 25.0 mg/kg/injection, schedule: Q04DX003 (ip), vehicle: Klucel (hydroxypropylcellulose) (HPC) 104 % of control | [1] 95 % of control | dose: 50.0 mg/kg/injection, schedule: Q04DX003 (ip), vehicle: Klucel (hydroxypropylcellulose) (HPC) 109 % of control

Brc1ccc2c(c1)-c1ccccc1C1=NCCN12
inactive: dose: 2.5 mg/kg/injection, schedule: Q01DX009 (ip), vehicle: Klucel (hydroxypropylcellulose) (HPC) 95 % of control | dose: 5.0 mg/kg/injection, schedule: Q01DX009 (ip), vehicle: Klucel (hydroxypropylcellulose) (HPC) 104 % of control | dose: 10.0 mg/kg/injection, schedule: Q01DX009 (ip), vehicle: Klucel (hydroxypropylcellulose) (HPC) 100 % of control | dose: 20.0 mg/kg/injection, schedule: Q01DX009 (ip), vehicle: Klucel (hydroxypropylcellulose) (HPC) 95 % of control

COc1nc(Cl)nc(OC)n1
inactive: dose: 25.0 mg/kg/injection, schedule: Q01DX009 (ip), vehicle: saline with Tween-80 96 % of control | [2] 97 % of control | [3] 99 % of control | [4] 99 % of control

Cc1cc2no[n+]([O-])c2cc1C
inactive: [1] 109 % of control | dose: 100.0 mg/kg/injection, schedule: Q01DX009 (ip), vehicle: Klucel (hydroxypropylcellulose) (HPC) 109 % of control | dose: 200.0 mg/kg/injection, schedule: Q01DX009 (ip), vehicle: Klucel (hydroxypropylcellulose) (HPC) 109 % of control

FC(F)(F)COP1SCCS1
inactive: dose: 25.0 mg/kg/injection, schedule: Q01DX005 (ip), vehicle: saline with Tween-80 97 % of control | dose: 50.0 mg/kg/injection, schedule: Q01DX005 (ip), vehicle: saline with Tween-80 97 % of control

C[C@@H]1C[C@@]2(O[C@@H]2C)C(=O)O[C@@H]2CCN3CC=C(COC(=O)[C@]1(C)O)[C@H]23
inactive: dose: 20.0 mg/kg/injection, schedule: Q01DX010 (ip), vehicle: carboxymethylcellulose (CMC) 110 % of control | dose: 40.0 mg/kg/injection, schedule: Q01DX010 (ip), vehicle: carboxymethylcellulose (CMC) 100 % of control

COc1cc2ccnc(Cc3ccccc3)c2cc1OC
inactive: [3] 109 % of control | [5] 109 % of control | [4] 104 % of control | [6] 109 % of control | [7] 109 % of control

CNc1ncnc2nc(OC)[nH]c12
inactive: dose: 0.78 mg/kg/injection, schedule: Q01DX009 (ip), vehicle: saline with Tween-80 95 % of control | dose: 1.56 mg/kg/injection, schedule: Q01DX009 (ip), vehicle: saline with Tween-80 100 % of control | dose: 3.13 mg/kg/injection, schedule: Q01DX009 (ip), vehicle: saline with Tween-80 98 % of control | dose: 6.25 mg/kg/injection, schedule: Q01DX009 (ip), vehicle: saline with Tween-80 101 % of control

c1ccc(-c2nn(-c3ccccc3)[n+](-c3cccc4ccccc34)n2)cc1
inactive: dose: 2.0 mg/kg/injection, schedule: Q01DX009 (ip), vehicle: saline with Tween-80 103 % of control | dose: 4.0 mg/kg/injection, schedule: Q01DX009 (ip), vehicle: saline with Tween-80 112 % of control

COc1ccc(C2CCc3cc4c(cc3C2=O)OCO4)cc1OC (configuration not stated)
inactive: [3] 100 % of control | [5] 90 % of control | [4] 95 % of control | [6] 100 % of control | [8] 100 % of control | [7] 100 % of control

CC(=N\O)/C(C)=N/O.CC(=N\O)/C(C)=N/O.[Cl][Rh][Cl]
inactive: [9] 94 % of control | [10] 119 % of control | [11] 95 % of control and 119 % of control | dose: 200.0 mg/kg/injection, schedule: Q01DX009 (ip), vehicle: saline 100 % of control

Cc1c(CCl)c(C)c(CCl)c(C)c1CCl
inactive: dose: 100.0 mg/kg/injection, schedule: Q04DX003 (ip), vehicle: Klucel (hydroxypropylcellulose) (HPC) 108 % of control

CC1OC(OCc2cc(O)c3c(c2)C(C2OC(CO)C(O)C(O)C2O)c2cccc(O)c2C3=O)C(O)C(O)C1O (configuration not stated)
inactive: dose: 50.0 mg/kg/injection, schedule: Q04DX003 (ip), vehicle: water 105 % of control | dose: 100.0 mg/kg/injection, schedule: Q04DX003 (ip), vehicle: water 101 % of control | dose: 200.0 mg/kg/injection, schedule: Q04DX003 (ip), vehicle: water 90 % of control

CCN(CC)CCCC(C)NC(=O)c1ccc(N(C)C)nc1 (configuration not stated)
inactive: dose: 50.0 mg/kg/injection, schedule: Q01DX009 (ip), vehicle: water 93 % of control

CCC(/C=C/C(C)C1CCC2C3CC=C4CC(O)CCC4(C)C3CCC12C)C(C)C (configuration not stated) (tested in a mixture with another compound)
inactive: [9] 104 % of control | dose: 25.0 mg/kg/injection, schedule: Q04DX003 (ip), vehicle: alcohol 109 % of control | [10] 95 % of control | dose: 50.0 mg/kg/injection, schedule: Q04DX003 (ip), vehicle: alcohol 95 % of control | [11] 100 % of control | dose: 100.0 mg/kg/injection, schedule: Q04DX003 (ip), vehicle: alcohol 100 % of control

CC(Cl)CNC(=O)Nc1cccc2c1CCCC2 (configuration not stated)
inactive: dose: 100.0 mg/kg/injection, schedule: Q01DX001 (ip), vehicle: saline with Tween-80 100 % of control | dose: 200.0 mg/kg/injection, schedule: Q01DX001 (ip), vehicle: saline with Tween-80 109 % of control | dose: 400.0 mg/kg/injection, schedule: Q01DX001 (ip), vehicle: saline with Tween-80 90 % of control

CC(=O)Nc1ccc(Cl)c(Cl)c1
inactive: dose: 100.0 mg/kg/injection, schedule: Q04DX003 (ip), vehicle: saline sonified 100 % of control | [5] 90 % of control | dose: 200.0 mg/kg/injection, schedule: Q04DX003 (ip), vehicle: saline sonified 120 % of control | [6] 100 % of control | dose: 400.0 mg/kg/injection, schedule: Q04DX003 (ip), vehicle: saline sonified 104 % of control

CC[N+](CC)(CC)CCCCCCCCCC[N+](CC)(CC)CC
inactive: dose: 0.25 mg/kg/injection, schedule: Q01DX009 (ip), vehicle: water 91 % of control | dose: 0.39 mg/kg/injection, schedule: Q04DX003 (ip), vehicle: water 102 % of control and 107 % of control | dose: 0.5 mg/kg/injection, schedule: Q01DX009 (ip), vehicle: water 112 % of control | dose: 0.5 mg/kg/injection, schedule: Q04DX003 (ip), vehicle: saline with Tween-80 92 % of control | dose: 0.78 mg/kg/injection, schedule: Q04DX003 (ip), vehicle: saline with Tween-80 100 % of control | dose: 0.78 mg/kg/injection, schedule: Q04DX003 (ip), vehicle: water 98 % of control and 120 % of control | dose: 1.0 mg/kg/injection, schedule: Q01DX009 (ip), vehicle: water 91 % of control and 105 % of control | dose: 1.0 mg/kg/injection, schedule: Q04DX003 (ip), vehicle: saline with Tween-80 92 % of control | dose: 1.56 mg/kg/injection, schedule: Q04DX003 (ip), vehicle: water 95 % of control and 104 % of control

O=c1[nH]c(=O)n(CCc2cccs2)cc1F
inactive: [2] 106 % of control | [3] 101 % of control | [5] 94 % of control | [4] 108 % of control | [6] 108 % of control | [8] 90 % of control | [7] 92 % of control

CCCNC(C)(C)C(SS)c1ccc(C(F)(F)F)cc1 (configuration not stated)
inactive: dose: 12.5 mg/kg/injection, schedule: Q04DX003 (ip), vehicle: other 100 % of control | dose: 25.0 mg/kg/injection, schedule: Q04DX003 (ip), vehicle: other 110 % of control | dose: 50.0 mg/kg/injection, schedule: Q04DX003 (ip), vehicle: other 105 % of control
